In data set [1] the target is T1, mIMPα2ΔIBB:NS1 NLS interaction (Mus musculus, UniProt P52293).
T1 construct: made in house; host or cells: bacteria
As to the kind of experiment: AlphaScreen inhibition assay of the IMPα:NS1-NLS interaction. The class given is binding.

For the next data set, the system named is EPCs. As to the kind of experiment: Cell cytotoxicity assay (WST-8, CCK-8) in EPCs. The class given is cell-based, human. The conditions noted are these: for CC50: WST-8 based assay, TLTM: too low to measure; for cell toxicity: every concentration tested.
For a further data set, the system named is UT7/EpoS1 cells. Kind of data set: Cell cytotoxicity assay (alamarBlue HS) in UT7/EpoS1 cells. The class given is cell-based. The conditions noted are these: for CC50: 6 h + 48 h with compound, alamarBlue, table: mean (95% CI).
Data set [2] deals with B19V. As to the kind of experiment: Antiviral assay: B19V DNA replication by qPCR in UT7/EpoS1 cells. In kind it is cell-based, Human parvovirus B19. The conditions noted are these: for EC50: B19V DNA 48 hpi vs 2 hpi, table: mean (95% CI); for inhibition of viral replication: compounds at 10 μM, 48 hpi vs 2 hpi.
Data set [3] has as its system B19V. Kind of data set: Antiviral assay: B19V DNA replication by qPCR in EPCs. The class given is cell-based, Human parvovirus B19. The conditions noted are these: B19V DNA 48 hpi vs 2 hpi, table: mean (95% CI).
Data set [4] deals with B19V. Also noted: method as in earlier work. The conditions noted are these: UT7/EpoS1 cells, IVM at 10 μM; cited from earlier work.
Setting [5] is: titration 0-5 μM, average ± SD, 4 independent experiments, read-out: IC50.

The values that follow come from publication PMC11860776 (Viruses, 2025).

Entries after “also recorded” stand apart in the source; their conditions may differ. Where two headings read alike, the source gives them in different places.

In the case of `CO[C@H]1C[C@H](O[C@@H]2/C(C)=C/C[C@@H]3C[C@@H](C[C@]4(CC[C@H](C)[C@@H](C5CCCCC5)O4)O3)OC(=O)[C@@H]3C=C(C)/C(=N/O)[C@H]4OC/C(=C\C=C\[C@@H]2C)[C@]43O)O[C@@H](C)[C@@H]1O` [Selamectin], it took 0.0508 ± 0.0029 µM to reach half-maximal inhibition in data set [1] (IC50).

For the molecule `CO/N=C1\C[C@]2(C[C@@H]3C[C@@H](C/C=C(\C)C[C@@H](C)/C=C/C=C4\CO[C@@H]5[C@H](O)C(C)=C[C@@H](C(=O)O3)[C@]45O)O2)O[C@H](/C(C)=C/C(C)C)[C@H]1C` [Moxidectin], the IC50 in data set [1] (setting [5]) came to 0.0157 ± 0.0012 µM.

With `CC[C@H](C)[C@H]1O[C@]2(CC[C@@H]1C)C[C@@H]1C[C@@H](C/C=C(\C)[C@@H](O[C@H]3C[C@H](OC)[C@@H](O[C@H]4C[C@H](OC)[C@@H](O)[C@H](C)O4)[C@H](C)O3)[C@@H](C)/C=C/C=C3\CO[C@@H]4[C@H](O)C(C)=C[C@@H](C(=O)O1)[C@]34O)O2` [IVM, Ivermectin], in the data set on EPCs, the CC50 entry is listed as “TLTM” and the cell toxicity entry is “extremely toxic at every concentration tested”. In the data set on UT7/EpoS1 cells, the “concentrations causing significative toxicity” value is reported as “above 12.5 μM” and the CC50 was 14.5 µM. In addition, the “AlphaScreen counts (mIMPα2ΔIBB:NS1 NLS interaction)” value in data set [1] (IVM 10 μM (text; figure legend says 2.5 μM) vs absence) is recorded as “significant reduction”. For the same molecule, the IC50 in data set [1] (setting [5]) came to 0.0118 ± 0.004 µM. Besides, in the data set on B19V [2], the “concentration from which strong inhibition of B19V DNA replication starts” value was no less than 6 µM, the EC50 stood at 7.6 µM and the “inhibition of viral replication” value is listed as “inhibited viral replication”. Further, the concentration giving a half-maximal response (EC50) in the data set on B19V [3] is 3.3 µM. For the same molecule, the “inhibition of B19V viral replication” value with B19V [4] is “could inhibit B19V viral replication”.

For the molecule Emamectin benzoate [Emamectin benozate], the IC50 in data set [1] (setting [5]) came out at 0.0099 ± 0.003 µM.

For the molecule Avermectin B1, the concentration for half-maximal inhibition (IC50) in data set [1] (setting [5]) turned out to be 0.0361 ± 0.0177 µM. In addition, in the data set with B19V [2], a half-maximal effect (EC50) was put at 9.8 µM and the “inhibition of viral replication” value is recorded as “inhibited viral replication more than IVM”.

`CC(Nc1nc(N2CCCC2)nc2ccccc12)c1ccccc1` (stereo not shown) [Importazole]: the CC50 with UT7/EpoS1 cells came to 30 µM. Besides, in the data set on B19V [2], the EC50 is 13.4 µM and the “inhibition of viral replication” value is recorded as “inhibited viral replication; also recorded: inhibited viral replication more than IVM”.

Regarding Milbemycin oxime, in data set [1] (setting [5]), the IC50 turned out to be 0.0269 ± 0.0159 µM.

Take Eprinomectin: in the data set on EPCs, the CC50 result was “TLTM” and the cell toxicity result is listed as “extremely toxic at every concentration tested”. Also, the CC50 in the data set with UT7/EpoS1 cells was 15.9 µM. For the same molecule, the IC50 in data set [1] (setting [5]) was 0.0409 ± 0.0099 µM. For the same molecule, in the data set with B19V [2], it took 3.2 µM to reach a half-maximal effect (EC50) and the “inhibition of viral replication” value is listed as “inhibited viral replication more than IVM”. In the data set with B19V [3], this molecule yielded an EC50 of 6.5 µM.
